This is an account of results in patent US6812346B2, “Substituted pyridines as selective cyclooxygenase-2 inhibitors” (Merck Frosst Canada and Co., priority 1996, dated 2004).

Experiment [1] concerns carrageenan-induced rat paw edema. Briefly: Rat paw edema assay. The experiment is classed as in vivo. As to conditions: male Sprague-Dawley rats, po, 1 hr before carrageenan, paw volume 3 hr later; for ED50: Rattus norvegicus. As for the experimental part: Male Sprague-Dawley rats (150-200 g) are fasted overnight and are given, po, either vehicle (1% methocel or 5% Tween 80) or a test compound. One hr later, a line is drawn using a permanent marker at the level above the ankle in one hind paw to define the area of the paw to be monitored. The paw volume (V0) is measured using a plethysmometer (Ugo-Basile, Italy) based on the principle of water displacement. The animals are then injected subplantarly with 50 μl of 1% carrageenan solution in saline (FMC Corp, Maine) into the paw using an insulin syringe with a 25-gauge needle (i.e. 500 μg carrageenan per paw). Three hr later, the paw volume (V3) is measured and the increases in paw volume (V3-V0) are calculated. The animals are sacrificed by CO2 asphyxiation and the absence or presence of stomach lesions scored. Data is compared with the vehicle-control values and percent inhibition calculated. All treatment groups are coded to eliminate observer bias.
A general note: Carrageenan injected into the paw causes an acute inflammation.

For a further experiment, the target named is T1, COX-1 (Homo sapiens, UniProt P23219).
T1 construct: Assay of COX-1 Activity from U937 Cell Microsomes; endogenous in cells; host or cells: U937 cells, 100,000 x g microsomal fraction
Briefly: Cox-1 U937 (COX-1 activity from U937 cell microsomes). As to conditions: U937, PGE2 synthesis in presence of AA. It is filed as biochemical. As for the experimental part:
Assay of COX-1 Activity from U937 Cell Microsomes
U 937 cells are pelleted by centrifugation at 500×g for 5 min and washed once with phosphate-buffered saline and repelleted. Cells are resuspended in homogenization buffer consisting of 0.1 M Tris-HCl, pH 7.4, 10 mM EDTA, 2 μg/ml leupeptin, 2 μg/ml soybean trypsin inhibitor, 2 μg/ml aprotinin and 1 mM phenyl methyl sulfonyl fluoride. The cell suspension is sonicated 4 times for 10 sec and is centrifuged at 10,000×g for 10 min at 4° C. The supernatant is centrifuged at 100,000×g for 1 hr at 4° C. The 100,000×g microsomal pellet is resuspended in 0.1 M Tris-HCl, pH 7.4, 10 mM EDTA to approximately 7 mg protein/ml and stored at −80° C.
Assays are performed in duplicate in a final volume of 250 μl. Initially, 5 μl of DMSO vehicle or drug in DMSO are added to 20 μl of 0.1 M Tris-HCl buffer, pH 7.4 containing 10 mM EDTA in wells of a 96-deepwell polypropylene titre plate. 200 μl of the microsomal preparation are then added and pre-incubated for 15 min at room temperature before addition of 25 μl of […] in […] Tris-HCl and 10 mM EDTA, pH 7.4. Samples are incubated for 40 min at room temperature and the reaction is stopped by the addition of 25 μl of 1 N HCl. Samples are neutralized with 25 μl of 1 N NaOH prior to quantitation of PGE2 content by radioimmunoassay (Dupont-NEN or Amersham assay kits). Cyclooxygenase activity is defined as the difference between PGE2 levels in samples incubated in the presence of arachidonic acid and ethanol vehicle.

A further experiment has as its target T2, COX-2 (Homo sapiens, UniProt P35354).
T2 sequence (P35354 18-604): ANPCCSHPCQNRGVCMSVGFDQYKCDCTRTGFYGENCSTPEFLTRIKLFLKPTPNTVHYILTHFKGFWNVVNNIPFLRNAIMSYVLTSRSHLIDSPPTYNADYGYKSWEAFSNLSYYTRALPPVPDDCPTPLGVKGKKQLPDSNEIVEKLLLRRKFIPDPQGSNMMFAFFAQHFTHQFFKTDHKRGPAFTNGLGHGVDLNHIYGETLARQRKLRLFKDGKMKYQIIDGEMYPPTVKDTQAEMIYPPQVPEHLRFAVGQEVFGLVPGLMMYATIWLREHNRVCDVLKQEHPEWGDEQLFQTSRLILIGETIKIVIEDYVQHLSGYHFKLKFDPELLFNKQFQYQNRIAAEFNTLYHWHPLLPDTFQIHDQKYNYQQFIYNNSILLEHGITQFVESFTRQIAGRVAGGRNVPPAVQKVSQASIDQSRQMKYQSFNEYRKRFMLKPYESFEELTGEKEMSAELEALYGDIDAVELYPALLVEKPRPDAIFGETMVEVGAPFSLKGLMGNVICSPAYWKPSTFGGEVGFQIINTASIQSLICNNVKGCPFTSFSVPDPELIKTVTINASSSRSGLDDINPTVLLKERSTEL
Briefly: Human whole blood assay, COX-2 (LPS-induced PGE2 production). It is filed as cell-based. The source says:
As well, platelets in whole blood contain a large amount of the COX-1 enzyme. Immediately following blood clotting, platelets are activated through a thrombin-mediated mechanism. This reaction results in the production of thromboxane B2 (TxB2) via activation of COX-1. Thus, the effect of test compounds on TxB2 levels following blood clotting can be examined and used as an index for COX-1 activity. Therefore, the degree of selectivity by the test compound can be determined by measuring the levels of PGE2 after LPS induction (COX-2) and TxB2 following blood clotting (COX-1) in the same assay.
Step A: COX-2 (LPS-induced PGE2 Production)
Fresh blood is collected in heparinized tubes by venipuncture from both male and female volunteers. The subjects have no apparent inflammatory conditions and have not taken any NSAIDs for at least 7 days prior to blood collection. Plasma is immediately obtained from a 2 mL blood aliquot to use as blank (basal levels of PGE2).

The mark [2] stands for this setting: human whole blood, LPS-induced PGE2 production, 24 hours at 37° C., read-out: Cox-2 Whole Blood (IC50).
Setting [3] is: Cox-1 U937 IC50 over Cox-2 whole blood IC50.

Molecules are shown by their SMILES. Read-outs that look alike come from different tables or passages of the source.

T1 sequence (P23219 24-599): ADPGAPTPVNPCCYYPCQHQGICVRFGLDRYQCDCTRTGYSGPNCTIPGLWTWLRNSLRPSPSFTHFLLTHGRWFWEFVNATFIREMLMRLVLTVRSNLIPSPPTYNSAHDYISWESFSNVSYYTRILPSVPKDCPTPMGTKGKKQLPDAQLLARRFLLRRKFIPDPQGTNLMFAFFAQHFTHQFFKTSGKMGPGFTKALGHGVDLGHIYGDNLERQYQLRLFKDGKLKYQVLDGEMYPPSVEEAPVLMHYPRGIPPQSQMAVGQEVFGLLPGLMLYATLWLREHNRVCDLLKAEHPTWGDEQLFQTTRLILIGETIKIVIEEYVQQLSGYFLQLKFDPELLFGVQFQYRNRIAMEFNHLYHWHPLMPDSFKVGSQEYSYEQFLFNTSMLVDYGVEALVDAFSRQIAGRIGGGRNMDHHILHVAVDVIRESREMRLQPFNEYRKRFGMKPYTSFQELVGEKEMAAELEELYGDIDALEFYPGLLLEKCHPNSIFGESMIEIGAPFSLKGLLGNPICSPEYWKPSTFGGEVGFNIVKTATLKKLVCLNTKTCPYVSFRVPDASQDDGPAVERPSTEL

As for `CS(=O)(=O)c1ccc(-c2cccnc2-c2ccccc2)cc1` [Aa, reference compound], in experiment [1], the 50% effective dose (ED50) is > 10 mg/kg.

For `CS(=O)(=O)c1ccc(-c2cccnc2-c2ccc(F)cc2)cc1` [Ab, reference compound], the figures for the IC50 on COX-1 and on COX-2 (setting [2]) were 2.2 µM and 4900 nM, respectively.

In experiment [1], `CS(=O)(=O)c1ccc(-c2cc(C(F)(F)F)cnc2-c2ccccc2)cc1` [Example 1, 3-(4-Methylsulfonyl)phenyl-2-phenyl-5-trifluoromethylpyridine] gave an ED50 of 5.4 mg/kg. In addition, the 50% inhibitory concentration (IC50) at COX-1 amounted to 1.5 µM; on COX-2 (setting [2]) it was 300 nM. Also, at COX-2 (setting [3]), the “Selectivity Ratio” value was 4.4.

As for `CS(=O)(=O)c1ccc(-c2cc(C(F)(F)F)cnc2-c2ccc(Cl)cc2)cc1` [Example 3, 2-(4-Chlorophenyl)-3-(4-methylsulfonyl)phenyl-5-trifluoromethylpyridine], the values for the IC50 on COX-1 and at COX-2 (setting [2]) were 1.8 µM and 900 nM, respectively. Besides, the “Selectivity Ratio” value at COX-2 (setting [3]) stood at 2.

In the case of `CS(=O)(=O)c1ccc(-c2cc(C(F)(F)F)cnc2-c2ccc(F)cc2)cc1` [Example 4, 2-(4-Fluorophenyl)-3-(4-methylsulfonyl)phenyl-5-trifluoromethylpyridine], the IC50 on COX-1 amounted to 1 µM; on COX-2 (setting [2]), 300 nM. Besides, the “Selectivity Ratio” value on COX-2 (setting [3]) was determined as 3.3.

Turning to `CS(=O)(=O)c1ccc(-c2cc(C(F)(F)F)cnc2-c2cccnc2)cc1` [Example 7, 3-(4-Methylsulfonyl)phenyl-2-(3-pyridinyl)-5-trifluoromethylpyridine], the IC50 on COX-1 came out at 5 µM.

In the case of `Cc1cnc(-c2ccccc2)c(-c2ccc(S(C)(=O)=O)cc2)c1` [Example 13, 5-Methyl-3-(4-methylsulfonyl)phenyl-2-phenylpyridine], the figures for the IC50 on COX-1 and on COX-2 (setting [2]) were 3 µM and 500 nM, respectively. The “Selectivity Ratio” value at COX-2 (setting [3]) is listed as 6.

For `Cc1cnc(-c2ccc(Cl)cc2)c(-c2ccc(S(C)(=O)=O)cc2)c1` [Example 14, 2-(4-Chlorophenyl)-5-methyl-3-(4-methylsulfonyl)phenylpyridine], the IC50 on COX-1 amounted to 1.4 µM; on COX-2 (setting [2]), 700 nM. For the same compound, the “Selectivity Ratio” value at COX-2 (setting [3]) amounted to 2.

For `CS(=O)(=O)c1ccc(-c2cc(Cl)cnc2-c2cccnc2)cc1` [Example 21, 5-Chloro-3-(4-methylsulfonyl)phenyl-2-(3-pyridinyl)pyridine], the median effective dose (ED50) in experiment [1] turned out to be 2.3 mg/kg. Besides, the IC50 on COX-1 is 16 µM; at COX-2 (setting [2]), 1000 nM. In addition, the “Selectivity Ratio” value at COX-2 (setting [3]) is listed as 16.

As to `Cc1ccc(-c2ncc(Cl)cc2-c2ccc(S(C)(=O)=O)cc2)cn1` [Example 23, 5-Chloro-3-(4-methylsulfonyl)phenyl-2-(2-methyl-5-pyridinyl)pyridine], the IC50 at COX-1 was > 10 µM.

In experiment [1], `CS(=O)(=O)c1ccc(-c2cc(Br)cnc2-c2cccnc2)cc1` [Example 32] yielded a 50% effective dose (ED50) of 0.9 mg/kg. Further, the half-maximal inhibitory concentration (IC50) is > 10 µM on COX-1 and 1200 nM at COX-2 (setting [2]).

Take `CS(=O)(=O)c1ccc(-c2cc(C#N)cnc2-c2ccc(Cl)cc2)cc1` [Example 45, 5-Cyano-2-(4-chlorophenyl)-3-(4-methylsulfonyl)phenylpyridine]: it took a dose of 3 mg/kg to reach the 50% effect level in experiment [1] (ED50). The figures for the IC50 at COX-1 and at COX-2 (setting [2]) were > 10 µM and 2200 nM, respectively. The “Selectivity Ratio” value on COX-2 (setting [3]) was >4.5.

For `CS(=O)(=O)O.CS(=O)(=O)c1ccc(-c2cc(Cl)cnc2-c2cccnc2)cc1` [Example 46, 5-Chloro-3-(4-methylsulfonyl)phenyl-2-(3-pyridyl)pyridine hydromethanesulfonate], the “Rat Paw Edema (ED50, mg/kg)” value in experiment [1] is 3.3 mg/kg.

Consider `CS(=O)(=O)c1ccc(-c2cc(Cl)cnc2-c2cccnc2)cc1.Cl` [Example 47, 5-Chloro-3-(4-methylsulfonyl)phenyl-2-(3-pyridyl)pyridine hydrochloride], for which the “Rat Paw Edema (ED50, mg/kg)” value in experiment [1] amounted to 2.4 mg/kg.

Take `Cc1ccc(-c2ncc(Cl)cc2-c2ccc(S(C)(=O)=O)cc2)cn1.Cl` [Example 59, 5-Chloro-3-(4-methylsulfonyl)phenyl-2-(2-methyl-5-pyridinyl)pyridine Hydrochloride]: the “Rat Paw Edema (ED50, mg/kg)” value in experiment [1] amounted to 0.8 mg/kg.

In experiment [1], `CCc1ccc(-c2ncc(Cl)cc2-c2ccc(S(C)(=O)=O)cc2)cn1` [Example 71, 5-Chloro-3-(4-methylsulfonyl)phenyl-2-(2-ethyl-5-pyridinyl)pyridine] had an ED50 of 1.6 mg/kg. In addition, the IC50 at COX-1 is > 10 µM.

As for `CS(=O)(=O)c1ccc(-c2cc(Cl)cnc2-c2ccc(C3CC3)nc2)cc1` [Example 73, 5-Chloro-3-(4-methylsulfonyl)phenyl-2-(2-cyclopropyl-5-pyridinyl)pyridine], in experiment [1], the 50% effective dose (ED50) was 2 mg/kg. Besides, the 50% inhibitory concentration (IC50) at COX-1 is 7 µM. Besides, on COX-2, inhibition was half-maximal at 1800 nM (IC50) and the “Selectivity Ratio” value is listed as 3.8.

The term ED50 denotes the dose that gives a 50% effect, or the effect in half of the subjects. What is called IC50 is the concentration at which inhibition is half-maximal.
